In US5807983A, “GNRH antagonist betides” (The Salk Institute for Biological Studies, priority 1996, dated 1998):
Blank lines part the entries; values can stand above or below the molecule they belong to.

Experiments:
[1] = test system: ovulation in mature female Sprague-Dawley rats; assay: standard in vivo rat anti-ovulation test; conditions: injected in bacteriostatic water at about noon on the day of proestrus
Experimental: (§1) The betide is assayed in vivo to determine its effectiveness to prevent ovulation in female rats. Inthis test, a specified number of mature female Sprague-Dawley rats, e.g. five to ten, each having a body weight from 225 to 250 grams, are injected with a specified microgram dosage of the betide in bacteriostatic water at about noon on the day of proestrus. Proestrus is the […]. A separate female rat group is used as a control to which the peptide is not administered. Each of the control female rats ovulates on the evening of proestrus; the number of the rats treated which ovulate is recorded.

circulating LH = assay: suppression of circulating LH concentrations, duration of bioactivity; assay type: in vivo; conditions: dose of 50 micrograms per rat; for duration of bioactivity (LH suppression): testing as in Example 1
[2] = hydrophilicity by RP-HPLC retention; assay type: physicochemical; conditions: for hydrophilicity compared to Acyline: RP-HPLC
[3] = examination of injected rats for tolerance and gelling at the point of injection; assay type: in vivo, rat; conditions: after injection in the anti-ovulation test
Experimental: as §1

Molecule: CC(=O)Nc1ccc(C[C@H](NC(=O)[C@H](CO)NC(=O)[C@@H](Cc2cccnc2)NC(=O)[C@@H](Cc2ccc(Cl)cc2)NC(=O)C(NC(C)=O)NC(=O)c2ccc3ccccc3c2)C(=O)N[C@H](Cc2ccc(NC(C)=O)cc2)C(=O)N[C@@H](CC(C)C)C(=O)N[C@@H](CCCCNC(C)C)C(=O)N2CCC[C@H]2C(=O)N[C@H](C)C(N)=O)cc1 (single isomer, unassigned) [Betide No. 3, Ac-γ-(2-naphthoyl)amidoGly-4Cl-D-Phe-D-3Pal-Ser-Aph(acetyl)-D-Aph(acetyl)-Leu-Lys(isopropyl)-Pro-D-Ala-NH2]
anti-ovulatory activity: rats ovulating out of rats treated ([1]; dosage 1 μg): 2 out of 7
anti-ovulatory activity: rats ovulating out of rats treated ([1]; dosage 2.5 μg): 0/8
duration of bioactivity (LH suppression) (circulating LH): ≥ 48 h

Molecule: CC(=O)Nc1ccc(C[C@H](NC(=O)[C@H](CO)NC(=O)C(NC(=O)c2cccnc2)NC(=O)[C@@H](Cc2ccc(Cl)cc2)NC(=O)[C@@H](Cc2ccc3ccccc3c2)NC(C)=O)C(=O)N[C@H](Cc2ccc(NC(C)=O)cc2)C(=O)N[C@@H](CC(C)C)C(=O)N[C@@H](CCCCNC(C)C)C(=O)N2CCC[C@H]2C(=O)N[C@H](C)C(N)=O)cc1 (single isomer, unassigned) [Betide No. 1, Ac-D-2Nal-(4Cl)D-Phe-γ-(3-pyridyl)amidoGly-Ser-Aph(acetyl)-D-Aph(acetyl)-Leu-Lys(isopropyl)-Pro-D-Ala-NH2]
hydrophilicity compared to Acyline [2]: more hydrophilic
RP-HPLC retention (hydrophilicity) ([2]; gradient 40% to 75% Buffer B over 30 minutes, Buffer A TEAP pH 7.3, Buffer B 60% CH3CN and 40% Buffer A): 23.5 min
circulating LH concentrations relative to control levels (circulating LH; for 48 hours or more): less than 25 % of control levels
duration of bioactivity (LH suppression) (circulating LH): ≥ 48 h
gelling at the point of injection [3]: no significant gelling
tolerance in treated rats [3]: very well tolerated

hydrophilicity compared to Acyline [2]: more hydrophilic than Acyline
Molecule: Ac-2Nal-4Cl-D-Phe-D-3Pal-Ser-Aph(acetyl)-D-Aph(acetyl)-Leu-Lys(isopropyl)- Pro-D/L-Agl(methyl,For)-NH2 [Betide No. 8C]
anti-ovulatory activity: rats ovulating out of rats treated ([1]; dosage 1 μg): 1 out of 8
anti-ovulatory activity: rats ovulating out of rats treated ([1]; dosage 2.5 μg): 0/8
